Data published in the supplement of paper PMC10307832.

Columns and labels:
Assay in all cases: relative viability (nuclei count vs DMSO), 5 days (fraction); higher = more cells survive
IMD-0354 + Foretinib = compound: O=C(Nc1cc(C(F)(F)F)cc(C(F)(F)F)c1)c1cc(Cl)ccc1O [IMD-0354] + COc1cc2c(Oc3ccc(NC(=O)C4(C(=O)Nc5ccc(F)cc5)CC4)cc3F)ccnc2cc1OCCCN1CCOCC1 [Foretinib] (partner 0.25 µM)
Summary of the method: (§1)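 Cells from lung cancer lines were seeded into 1536-well plates and, one day later, dosed by pin tool. Treatments were either a single drug or a fixed dose of an anchor drug with five library-drug doses (not always all listed) in √10 steps. After 5 days, nuclei were stained in a one-step fixation (final 0.05% Triton X-100, 1% formaldehyde, 1 ug/ml Hoechst) and counted on 4× images, and relative viability is the treated-to-vehicle nuclei ratio, as the median of duplicate plates.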

CX-5461 + Dasatinib = compound: Cc1cnc(CNC(=O)c2c(=O)c3ccc(N4CCCN(C)CC4)nc3n3c2sc2ccccc23)cn1 [CX-5461] + Cc1nc(Nc2ncc(C(=O)Nc3c(C)cccc3Cl)s2)cc(N2CCN(CCO)CC2)n1 [Dasatinib] (partner 0.075 µM)
Summary of the method: as §1

CX-5461 + Bortezomib = compound: Cc1cnc(CNC(=O)c2c(=O)c3ccc(N4CCCN(C)CC4)nc3n3c2sc2ccccc23)cn1 [CX-5461] + CC(C)C[C@H](NC(=O)[C@H](Cc1ccccc1)NC(=O)c1cnccn1)B(O)O [Bortezomib] (partner 0.002 µM)
Summary of the method: as §1

IMD-0354 + Trametinib = compound: O=C(Nc1cc(C(F)(F)F)cc(C(F)(F)F)c1)c1cc(Cl)ccc1O [IMD-0354] + CC(=O)Nc1cccc(-n2c(=O)n(C3CC3)c(=O)c3c(Nc4ccc(I)cc4F)n(C)c(=O)c(C)c32)c1 [Trametinib] (partner 0.02 µM)
Summary of the method: as §1

Cell Line | relative viability (IMD-0354 + Foretinib; first compound 0.04 µM) | relative viability (IMD-0354 + Foretinib; first compound 0.1265 µM) | relative viability (IMD-0354 + Foretinib; first compound 0.4 µM) | relative viability (IMD-0354 + Foretinib; first compound 1.265 µM) | relative viability (IMD-0354 + Foretinib; first compound 4 µM) | relative viability (CX-5461 + Dasatinib; first compound 0.01 µM) | relative viability (CX-5461 + Dasatinib; first compound 0.03162 µM) | relative viability (CX-5461 + Dasatinib; first compound 0.1 µM) | relative viability (CX-5461 + Dasatinib; first compound 0.3162 µM) | relative viability (CX-5461 + Dasatinib; first compound 1 µM) | relative viability (CX-5461 + Bortezomib; first compound 0.01 µM) | relative viability (CX-5461 + Bortezomib; first compound 0.03162 µM) | relative viability (CX-5461 + Bortezomib; first compound 0.1 µM) | relative viability (CX-5461 + Bortezomib; first compound 0.3162 µM) | relative viability (CX-5461 + Bortezomib; first compound 1 µM) | relative viability (IMD-0354 + Trametinib; first compound 0.04 µM) | relative viability (IMD-0354 + Trametinib; first compound 0.1265 µM) | relative viability (IMD-0354 + Trametinib; first compound 0.4 µM) | relative viability (IMD-0354 + Trametinib; first compound 1.265 µM) | relative viability (IMD-0354 + Trametinib; first compound 4 µM)
NCI-H647 | 1.57 | 1.27 | 0.426 | 0.554 | 0.148 | 0.18 | 0.175 | 0.161 | 0.162 | 0.0641 | 1.16 | 0.991 | 0.95 | 0.935 | 0.168 | 0.432 | 0.616 | 0.175 | 0.107 | 0.0901
SW 1573 | 0.891 | 0.928 | 0.579 | 0.61 | 0.123 | 0.528 | 0.396 | 0.302 | 0.502 | 0.17 | 0.952 | 1.22 | 1.03 | 0.924 | 0.763 | 0.631 | 0.554 | 0.384 | 0.107 | 0.105
ChaGo-K-1 | 0.998 | 0.875 | 0.747 | 0.531 | 0.258 | 0.57 | 0.57 | 0.575 | 0.469 | 0.253 | 1.14 | 0.968 | 0.647 | 0.414 | 0.449 | 0.918 | 0.872 | 0.68 | 0.718 | 0.233
NCI-H1650 | 1.32 | 1.1 | 0.581 | 0.207 | 0.245 | 0.355 | 0.326 | 0.195 | 0.305 | 0.14 | 0.202 | 0.191 | – | 0.19 | 0.175 | 0.568 | 0.558 | 0.479 | 0.131 | 0.254
NCI-H2009 | 1.22 | 1.18 | 0.817 | 0.406 | 0.147 | 0.341 | 0.324 | 0.305 | 0.346 | 0.262 | 1.05 | 1.08 | 0.644 | 0.867 | 0.492 | 0.312 | 0.298 | 0.249 | 0.129 | 0.154
LOU-NH91 | 0.976 | 0.981 | 0.575 | 0.154 | 0.134 | 0.677 | 0.511 | 0.602 | – | 0.532 | 0.509 | 0.492 | 0.485 | – | 0.452 | 0.824 | 0.675 | 0.406 | 0.177 | 0.239
NCI-H2405 | 1.1 | 1.02 | 0.926 | 0.365 | 0.303 | 0.224 | 0.204 | 0.197 | 0.205 | 0.193 | 0.998 | 0.976 | 0.987 | 1.13 | 0.953 | 0.753 | 0.625 | 0.518 | 0.283 | 0.277
LCLC-97TM1 | 0.929 | 0.824 | 0.673 | 0.34 | 0.164 | 0.755 | 0.873 | 0.791 | – | 0.701 | 0.69 | 0.34 | 0.457 | – | 0.119 | 0.186 | 0.178 | 0.141 | 0.214 | 0.113
NCI-H596 | 0.901 | 0.844 | 0.634 | 0.917 | 0.307 | 0.613 | 0.639 | 0.596 | 0.623 | 0.473 | 0.948 | – | 0.594 | 1.03 | 0.529 | 0.843 | 0.649 | 0.639 | 0.659 | 0.512
NCI-H727 | 0.94 | 0.869 | 0.659 | 0.711 | 0.477 | 0.324 | 0.361 | 0.253 | 0.377 | 0.31 | 1.03 | 0.812 | 0.596 | 0.718 | 0.662 | 0.38 | 0.323 | 0.365 | 0.351 | 0.394
H3255 | 0.836 | 1.02 | 0.785 | 0.433 | 0.283 | 0.482 | 0.295 | 0.34 | 0.334 | 0.304 | 0.878 | 0.791 | 0.775 | 0.464 | 0.789 | 0.612 | 0.664 | 0.472 | 0.49 | 0.311
NCI-H1437 | 1.34 | 1.16 | 0.624 | 0.424 | 0.251 | 0.434 | 0.373 | 0.431 | 0.32 | 0.368 | 0.45 | 0.423 | – | 0.369 | 0.316 | 0.538 | 0.486 | 0.325 | 0.194 | 0.191
LU99A | 0.655 | 0.806 | 0.612 | 0.682 | 0.273 | 0.759 | 0.499 | 0.439 | 0.341 | 0.172 | 1.1 | 1.02 | 0.977 | 0.868 | 0.417 | 0.434 | 0.475 | 0.442 | 0.505 | 0.206
HCC-827 | 1.05 | 0.978 | 0.625 | 0.282 | 0.19 | 0.346 | 0.277 | 0.349 | 0.35 | 0.298 | 1.01 | 1.06 | 1.02 | 1.06 | 0.997 | 0.54 | 0.524 | 0.469 | 0.393 | 0.197
HCC-366 | 0.837 | 1 | 0.441 | 0.216 | 0.046 | 0.678 | 0.597 | 0.627 | 0.68 | 0.106 | 1.08 | 1.18 | 1.06 | 1.04 | 0.114 | 0.479 | 0.404 | 0.251 | 0.0603 | 0.0454
BEN | 0.739 | 0.731 | 0.448 | 0.193 | 0.196 | 0.322 | 0.271 | 0.313 | 0.377 | 0.279 | 1.07 | 0.665 | 1.02 | 0.672 | 0.597 | 1.07 | 0.853 | 0.814 | 0.472 | 0.401
